From patent US11845752B2, “Substituted imidazo[1,5-a]pyrazines for the treatment of hepatitis B” (ALIGOS THERAPEUTICS, INC., priority 2020, dated 2023)
pEC50: −log10 of the molar value. Like-named read-outs stand apart in the source and are kept apart here.

System: HBV
Test: HBV-DNA antiviral assay using HepG2.117 cells (intracellular HBV DNA by qPCR)
Type: cell-based, HBV genotype D
Conditions: HBV DNA inhibition, 3 days incubation, read-out: EC50
Outline: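 HepG2.117 cells (stably integrated genotype D HBV, Tet-off) seeded without doxycycline to induce pgRNA, then treated next day with 9 concentrations (4-fold dilutions, 2% DMSO) for 3 days at 37 °C. Intracellular HBV DNA quantified by qPCR against standard curve, viability by ATP content; inhibition relative to DMSO control, EC50/EC90/CC50 by non-linear regression.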

[1] = Hepatitis B virus, HepG2.117, 72 h

Compound | pEC50 [1] | pEC50
O=C(NCc1ccccc1)c1c2n(c(=O)n1-c1ccc(N3CC4CC[C@@H]3CO4)cc1)CCN(C(=O)c1ccc(Br)c(Cl)c1)C2 (single isomer, unassigned) [Compound 125b] | 6.30 to 7.30 | 
O=C(NCc1ccccc1-c1ncccn1)c1c2n(c(=O)n1-c1ccc(OC3CC3)cc1)CC(CN1CCOCC1)N(C(=O)c1ccc(Br)c(C(F)(F)F)c1)C2 (single isomer, unassigned) [Compound 132a] | 5.30 to 6.30 | 
O=C(NCc1ccccc1-c1ncccn1)c1c2n(c(=O)n1-c1ccc(OC3CC3)cc1)CC(CN1CCOCC1)N(C(=O)c1ccc(Br)c(C(F)(F)F)c1)C2 (single isomer, unassigned) [Compound 132b] |  | 5.30 to 6.30
CC1Cn2c(c(C(=O)NCc3ccccc3-n3cc(F)cn3)n(-c3ccc(N4CCO[C@H](C)C4)cc3)c2=O)CN1C(=O)c1ccc(Br)c(Cl)c1 (stereo in doubt) [Compound 14a, (6R*)-7-(4-bromo-3-chloro-benzoyl)-N-[[2-(4-fluoropyrazol-1-yl)phenyl]methyl]-6-methyl-2-[4-[(2R)-2-methylmorpholin-4-yl]phenyl]-3-oxo-6,8-dihydro-5H-imidazo[1,5-a]pyrazine-1-carboxamide] | 6.30 to 7.30 | 
CC1Cn2c(c(C(=O)NCc3ccccc3-n3cc(F)cn3)n(-c3ccc(N4CCO[C@H](C)C4)cc3)c2=O)CN1C(=O)c1ccc(Br)c(Cl)c1 (stereo in doubt) [Compound 14b, (6S*)-7-(4-bromo-3-chloro-benzoyl)-N-[[2-(4-fluoropyrazol-1-yl)phenyl]methyl]-6-methyl-2-[4-[(2R)-2-methylmorpholin-4-yl]phenyl]-3-oxo-6,8-dihydro-5H-imidazo[1,5-a]pyrazine-1-carboxamide] |  | > 7.30
CC1Cn2c(c(C(=O)NCc3ccccc3-c3ccncn3)n(-c3ccc(N4CCO[C@H](C)C4)cc3)c2=O)CN1C(=O)c1ccc(Br)c(Cl)c1 (stereo in doubt) [Compound 15a, (6R*)-7-(4-bromo-3-chloro-benzoyl)-6-methyl-2-[4-[(2R)-2-methylmorpholin-4-yl]phenyl]-3-oxo-N-[(2-pyrimidin-4-ylphenyl)methyl]-6,8-dihydro-5H-imidazo[1,5-a]pyrazine-1-carboxamide] | 6.30 to 7.30 | 
CC1Cn2c(c(C(=O)NCc3ccccc3-c3ccncn3)n(-c3ccc(N4CCO[C@H](C)C4)cc3)c2=O)CN1C(=O)c1ccc(Br)c(Cl)c1 (stereo in doubt) [Compound 15b, (6S*)-7-(4-bromo-3-chloro-benzoyl)-6-methyl-2-[4-[(2R)-2-methylmorpholin-4-yl]phenyl]-3-oxo-N-[(2-pyrimidin-4-ylphenyl)methyl]-6,8-dihydro-5H-imidazo[1,5-a]pyrazine-1-carboxamide] |  | > 7.30
CNc1cc(-c2ccccc2CNC(=O)c2c3n(c(=O)n2-c2ccc(OC4CC4)cc2)C[C@@H](C)N(C(=O)c2ccc(Br)c(Cl)c2)C3)ncn1 (stereo in doubt) [Compound 39a, rac-(6R)-7-(4-bromo-3-chloro-benzoyl)-2-[4-(cyclopropoxy)phenyl]-(methylamino)pyrimidin-4-6-methyl-N-[[246-yl]phenyl]methyl]-3-oxo-6,8-dihydro-5H-imidazo[1,5-a]pyrazine-1-carboxamide] | 6.30 to 7.30 | 
CNc1cc(-c2ccccc2CNC(=O)c2c3n(c(=O)n2-c2ccc(OC4CC4)cc2)C[C@H](C)N(C(=O)c2ccc(Br)c(Cl)c2)C3)ncn1 (stereo in doubt) [Compound 39b, rac-(6S)-7-(4-bromo-3-chloro-benzoyl)-2-[4-(cyclopropoxy)phenyl]-6-methyl-N-[[246-(methylamino)pyrimidin-4-yl]phenyl]methyl]-3-oxo-6,8-dihydro-5H-imidazo[1,5-a]pyrazine-1-carboxamide] | > 7.30 | 
CC1Cn2c(c(C(=O)NCc3ccccc3-c3ccncn3)n(-c3ccc(OC[C@@H](C)O)cc3)c2=O)CN1C(=O)c1ccc(Br)c(C(F)(F)F)c1 (stereo in doubt) [Compound 55a, (6R*)-7-[4-bromo-3-(trifluoromethyl)benzoyl]-2-{4-[(2R)-2-hydroxypropoxy]phenyl}-6-methyl-3-oxo-N-{[2-(pyrimidin-4-yl)phenyl]methyl}-5H,6H,8H-imidazo[1,5-a]pyrazine-1-carboxamide] | 6.30 to 7.30 | 
CC1Cn2c(c(C(=O)NCc3ccccc3-c3ccncn3)n(-c3ccc(OC[C@@H](C)O)cc3)c2=O)CN1C(=O)c1ccc(Br)c(C(F)(F)F)c1 (stereo in doubt) [Compound 55b, (6S*)-7-[4-bromo-3-(trifluoromethyl)benzoyl]-2-{4-[(2R)-2-hydroxypropoxy]phenyl}-6-methyl-3-oxo-N-{[2-(pyrimidin-4-yl)phenyl]methyl}-5H,6H,8H-imidazo[1,5-a]pyrazine-1-carboxamide] |  | > 7.30
C[C@H]1Cn2c(c(C(=O)NCc3ccccc3-c3ccncn3)n(-c3ccc(OC[C@@H](O)C(F)(F)F)cc3)c2=O)CN1C(=O)c1ccc(Br)c(C(F)(F)F)c1 (stereo in doubt) [Compound 62b] | 6.30 to 7.30 | 
C[C@@H]1Cn2c(c(C(=O)NCc3ccccc3-c3ccncn3)n(-c3ccc(OC[C@H](O)C(F)(F)F)cc3)c2=O)CN1C(=O)c1ccc(Br)c(C(F)(F)F)c1 (stereo in doubt) [Compound 63a, (6RS)-7-[4-bromo-3-(trifluoromethyl)benzoyl]-6-methyl-3-oxo-N-[(2-pyrimidin-4-ylphenyl)methyl]-2-[4-[(25)-3,3,3-trifluoro-2-hydroxy-propoxy]phenyl]-6,8-dihydro-5H-imidazo[1,5-a]pyrazine-1-carboxamide] | > 7.30 | 
CC1Cn2c(c(C(=O)NCc3ccccc3-c3ncccn3)n(-c3ccc(OC[C@@H](O)C(F)(F)F)cc3)c2=O)CN1C(=O)c1ccc(Br)c(C(F)(F)F)c1 (stereo in doubt) [Compound 71a, (6R*)-7-[4-bromo-3-(trifluoromethyl)benzoyl]-6-methyl-3-oxo-N-{[2-(pyrimidin-2-yl)phenyl]methyl}-2-{4-[(2R)-3,3,3-trifluoro-2-hydroxypropoxy]phenyl}-5H,6H,8H-imidazo[1,5-a]pyrazine-1-carboxamide] | > 7.30 | 
CC1Cn2c(c(C(=O)NCc3ccccc3-c3ncccn3)n(-c3ccc(OC[C@@H](O)C(F)(F)F)cc3)c2=O)CN1C(=O)c1ccc(Br)c(C(F)(F)F)c1 (stereo in doubt) [Compound 71b, (6S*)-7-[4-bromo-3-(trifluoromethyl)benzoyl]-6-methyl-3-oxo-N-{[2-(pyrimidin-2-yl)phenyl]methyl}-2-{4-[(2R)-3,3,3-trifluoro-2-hydroxypropoxy]phenyl}-5H,6H,8H-imidazo[1,5-a]pyrazine-1-carboxamide] |  | 6.30 to 7.30
C[C@@H]1Cn2c(c(C(=O)NCc3ccccc3-c3ccncn3)n(-c3ccc4c(cnn4CC(F)(F)F)c3)c2=O)CN1C(=O)c1ccc(Br)c(C(F)(F)F)c1 (stereo in doubt) [Compound 72a, rac-(6R)-7-[4-bromo-3-(trifluoromethyl)benzoyl]-6-methyl-3-oxo-N-[(2-pyrimidin-4-ylphenyl)methyl]-2-[1-(2,2,2-trifluoroethyl)indazol-5-yl]-6,8-dihydro-SH-imidazo[1,5-a]pyrazine-1-carboxamide] | > 7.30 | 
C[C@H]1Cn2c(c(C(=O)NCc3ccccc3-c3ccncn3)n(-c3ccc4c(cnn4CC(F)(F)F)c3)c2=O)CN1C(=O)c1ccc(Br)c(C(F)(F)F)c1 (stereo in doubt) [Compound 72b, rac-(6S)-7-[4-bromo-3-(trifluoromethyl)benzoyl]-6-methyl-3-oxo-N-[(2-pyrimidin-4-ylphenyl)methyl]-2-[1-(2,2,2-trifluoroethyl)indazol-5-yl]-6,8-dihydro-SH-imidazo[1,5-a]pyrazine-1-carboxamide] | 6.30 to 7.30 | 
C[C@@H]1Cn2c(c(C(=O)NCc3ccccc3-c3ccncn3)n(-c3ccc(OC[C@@](C)(O)C(F)(F)F)cc3)c2=O)CN1C(=O)c1ccc(Br)c(C(F)(F)F)c1 (stereo in doubt) [Compound 82a, rac-(6R)-7-[4-bromo-3-(trifluoromethyl)benzoyl]-6-methyl-3-oxo-N-[(2-pyrimidin-4-ylphenyl)methyl]-2-[4-[rac-(2R)-3,3,3-trifluoro-2-hydroxy-2-methyl-propoxy]phenyl]-6,8-dihydro-5H-imidazo[1,5-a]pyrazine-1-carboxamide] | 6.30 to 7.30 | 
C[C@H]1Cn2c(c(C(=O)NCc3ccccc3-c3ccncn3)n(-c3ccc(OC[C@@](C)(O)C(F)(F)F)cc3)c2=O)CN1C(=O)c1ccc(Br)c(C(F)(F)F)c1 (stereo in doubt) [Compound 82b, rac-(6S)-7-[4-bromo-3-(trifluoromethyl)benzoyl]-6-methyl-3-oxo-N-[(2-pyrimidin-4-ylphenyl)methyl]-2-[4-[rac-(2R)-3,3,3-trifluoro-2-hydroxy-2-methyl-propoxy]phenyl]-6,8-dihydro-SH-imidazo[1,5-a]pyrazine-1-carboxamide] | > 7.30 | 
C[C@@H]1Cn2c(c(C(=O)NCc3ccccc3-c3ccncn3)n(-c3ccc(OC[C@](C)(O)C(F)(F)F)cc3)c2=O)CN1C(=O)c1ccc(Br)c(C(F)(F)F)c1 (stereo in doubt) [Compound 83a, rac-(6R)-7-[4-bromo-3-(trifluoromethyl)benzoyl]-6-methyl-3-oxo-N-[(2-pyrimidin-4-ylphenyl)methyl]-2-[4-[rac-(2S)-3,3,3-trifluoro-2-hydroxy-2-methyl-propoxy]phenyl]-6,8-dihydro-SH-imidazo[1,5-a]pyrazine-1-carboxamide] | 6.30 to 7.30 | 
C[C@H]1Cn2c(c(C(=O)NCc3ccccc3-c3ccncn3)n(-c3ccc(OC[C@](C)(O)C(F)(F)F)cc3)c2=O)CN1C(=O)c1ccc(Br)c(C(F)(F)F)c1 (stereo in doubt) [Compound 83b, rac-(6S)-7-[4-bromo-3-(trifluoromethyl)benzoyl]-6-methyl-3-oxo-N-[(2-pyrimidin-4-ylphenyl)methyl]-2-[4-[rac-(2S)-3,3,3-trifluoro-2-hydroxy-2-methyl-propoxy]phenyl]-6,8-dihydro-5H-imidazo[1,5-a]pyrazine-1-carboxamide] | 6.30 to 7.30 | 
